EPA's ToxRefDB 2

What was measured:
[1] = system: dog; details: Subchronic oral toxicity in nonrodent, beagle, Feed, dose end: 6 month, group: systemic, systemic / clinical chemistry / albumin-globulin ratio / albumin-globulin ratio + systemic / organ weight / liver / absolute + systemic / …
[2] = system: rat; details: Carcinogenicity; fischer; Oral; Feed; dose end: 24 month; group: systemic; systemic / clinical chemistry / [other] / [other] + systemic / in life observation / body weight / body weight + systemic / in life …
[3] = system: rat; details: Sub-acute repeat dose toxicity, fischer, Oral, Feed, dose end: 28 day, group: systemic
[4] = system: rat; details: Multigenerational reproductive toxicity study, sprague dawley, Oral, Gavage/Intubation, dose end: 1 generation
[5] = system: rat; details: Subchronic oral toxicity in rodents, fischer, Feed, dose end: 13 week, group: systemic
[6] = system: mouse; details: Prenatal developmental toxicity study; other; Oral; Gavage/Intubation; dose end: 18 GD; group: maternal; reproductive / reproductive performance / aborted / aborted + reproductive / reproductive performance / estrous cycle / corpora lutea
[7] = systemic / in life observation / food consumption / food consumption + systemic / pathology microscopic / stomach / hyperkeratosis + …
[8] = systemic / pathology microscopic / stomach / papilloma + systemic / in life observation / body weight / body weight + systemic / in life …
[9] = group: offspring, developmental / developmental landmark / vaginal opening / vaginal opening + systemic / clinical chemistry / cholesterol / cholesterol + …
[10] = group: offspring, systemic / organ weight / spleen / absolute
[11] = group: parental, systemic / organ weight / adrenal gland / absolute + systemic / organ weight / liver / absolute + systemic / organ weight / liver / relative…
[12] = group: parental, systemic / pathology gross / sperm measure / sperm morphology
[13] = group: reproductive, reproductive / reproductive performance / mating / mating + reproductive / reproductive performance / estrous cycle / length
[14] = systemic / in life observation / body weight / body weight gain + systemic / pathology gross / stomach / thickened + systemic / pathology …

`COc1ccc(O)c(C(C)(C)C)c1` [Butylated hydroxyanisole] gave an LEL [1] of 54 mg/kg/day, an LOAEL [1] of over 219 mg/kg/day and an NEL [1] of under 54 mg/kg/day. For the same compound, the NOAEL [1] was at least 219 mg/kg/day, the LEL [2] was 1000 mg/kg/day and the LOAEL [2] was over 1000 mg/kg/day. For the same compound, the NEL [2] was under 1000 mg/kg/day, the NOAEL [2] was at least 1000 mg/kg/day and the LEL [3, 7] was 350 mg/kg/day. The NEL [3, 7] was under 350 mg/kg/day, the LOAEL [3, 8] was over 1400 mg/kg/day and the NOAEL [3, 8] was at least 1400 mg/kg/day. It also gave an LOAEL [4, 9] of over 500 mg/kg/day, an NOAEL [4, 9] of at least 500 mg/kg/day and an LEL [4, 10] of 10 mg/kg/day. It also gave an NEL [4, 10] of under 10 mg/kg/day, an LOAEL [4, 11] of over 500 mg/kg/day and an NOAEL [4, 11] of at least 500 mg/kg/day. For the same compound, the LEL [4, 12] was 10 mg/kg/day, the NEL [4, 12] was under 10 mg/kg/day and the NEL ([4]; group: reproductive, reproductive / reproductive performance / mating / mating) was 100 mg/kg/day. For the same compound, the LEL [4, 13] was 500 mg/kg/day, the LOAEL [4, 13] was over 500 mg/kg/day and the NOAEL [4, 13] was at least 500 mg/kg/day. It also gave an LEL ([5]; systemic / clinical chemistry / [other] / [other]) of 250 mg/kg/day, an NEL ([5]; systemic / clinical chemistry / [other] / [other] + systemic / in life observation / body weight / body weight gain + systemic / in life …) of 125 mg/kg/day and an LOAEL [5, 14] of over 1000 mg/kg/day. It also gave an NOAEL [5, 14] of at least 1000 mg/kg/day, an LEL [6] of 500 mg/kg/day and an LOAEL [6] of over 500 mg/kg/day. The NEL [6] was under 500 mg/kg/day and the NOAEL [6] was at least 500 mg/kg/day.
